Reference: US20230066268A1, “INDAZOLE DERIVATIVES AND METHODS OF USE THEREOF FOR THE TREATMENT OF HERPES VIRUSES” (Merck Sharp & Dohme LLC, priority 2019, published 2023)
Like-named read-outs stand apart in the source and are kept apart here.

Legend:
[1] = molecular target: T1, Human cytomegalovirus DNA polymerase (Human cytomegalovirus, UniProt P08546); assay: CMV polymerase assay (AlphaLISA); format: biochemical; conditions: polymerase assay of Example 27, HCMV polymerase 0.2 nM
T1 construct: made in house; host or cells: SF21 insect cells (baculovirus vector)
Experimental: (§1) CMV and VZV Polymerase Assays
(§2) Human cytomegalovirus and varicella zoster virus DNA polymerases were expressed via baculovirus vector in SF21 cells and purified. Heterodimeric nucleic acid substrate used in the herpesvirus polymerase reactions were generated by annealing a 59-mer template to a 17-mer digoxigenin-labeled primer. Polymerase (HCMV final concentration of 0.2 nM; VZV final concentration of 0.4 nM) was combined with an inhibitor compound or DMSO in assay buffer (10 mM HEPES, pH 7.5, 25 mM KCl, 25 mM NaCl, 5 mM MgCl2, 5% glycerol, 0.67 mg/mL bovine serum albumin, and 1 mM tris(2-carboxyethyl)phosphine)), and this mixture was pre-incubated for 30 minutes at room temperature in 384-well microtiter plates. The polymerization reaction was initiated by the addition of template/primer substrate (final concentration: 1.6 nM) and dNTPs (final concentration: 24 nM dCTP, 24 nMdGTP, 16 nM dATP, 16 nM dTTP, and 0.8 nM biotin-dUTP). After a 60 minute incubation period at 37° C., the reactions were terminated using quench buffer (25 mM HEPES pH 7.5, 100 mM NaCl, 0.25% Tween-20, 12 mM EDTA, and 1 mg/mL bovine serum albumin). Incorporation of biotinylated UTP was detected with 2.5-5 μg/mL anti-DIG AlphaLISA acceptor beads and 5-10 μg/mL streptavidin AlphaLISA donor beads (PerkinElmer). Compound effects were normalized to the window defined by the controls (DMSO only and pre-quenched wells) and were fit using a 4-parameter algorithm to report an IC50.

[2] = molecular target: T2, varicella zoster virus DNA polymerase (Varicella-zoster virus, UniProt P09252); assay: VZV polymerase assay (AlphaLISA); format: biochemical; conditions: polymerase assay of Example 27, VZV polymerase 0.4 nM
T2 construct: made in house; host or cells: SF21 insect cells (baculovirus vector)
Experimental: as §1, §2

[3] = tested on: HCMV Strain AD169 in MRC-5 cells; assay: CMV cell assay; format: cell-based
Experimental: MRCS and Vero cells were obtained from ATCC and were maintained at 37° C./5% CO2/90% relative humidity in Minimal Essential Medium with 10% fetal bovine serum, […], 100 units/mL penicillin and 100 ug/mL streptomycin. Assay plates were prepared by dispensing compounds dissolved in DMSO into wells of 384 well collagen-coated plates using an ECHO acoustic dispenser. Each test compound was tested in a 10-point, serial 3-fold dilution. Controls included uninfected cells and infected cells treated only with DMSO. Assays were initiated by mixing selected cells, in suspension, with virus, and dispensing 50 μl/well infected cells to pre-plated compounds. Plates were incubated at 37° C./5% CO2/90% relative humidity for ˜72 hours to permit genomic replication, and infected cells were lysed by the addition of an equal volume of lysis buffer (10 mM Tris-HCl, pH8, 50 mM KCl, 2 mM MgCl2, 0.45% NP-40, 0.45% Tween-20, and 100 μg/mL proteinase K). An aliquot of the lysate was then transferred to a 384-well PCR plate and incubated at 56° C. for 1 hour, and then at 95° C. for 10 minutes. Levels of a viral gene were measured in 10 ul qPCR assays using TaqMan® Gene Expression Master Mix (Applied Biosystems) and an 7900HT Fast Real-Time PCR System with 384-Well Block Module. 7-point, serial 10-fold dilutions of a plasmid standard were run on each plate to generate a standard curve, and genome copies numbers were calculated by plotting experimental Ct onto linear regression of the standard curve. Compound effects on viral genome copy number were normalized to the window defined by the controls. Calculated % effects were fit using a 4-parameter algorithm, and EC50 was reported.
HCMV: Strain AD169 was assayed in MRC-5 cells and was used at 0.05-0.1 pfu/cell. The assays were performed in either growth media or in the same media with 50% fetal bovine serum. Primer-probe set was Thermo Fisher Assay ID=AIFATFK. HSV-1: Strain F was assayed in Vero or MRCS cells and was used at 0.0005-0.004 pfu/cell in growth medium. Primer-probe set was Thermo Fisher Assay ID=AIBJZIB. HSV-2: Strain G was assayed in Vero or MRCS cells and was used at 0.004-0.4 pfu/cell in growth medium. Primer-probe set was Thermo Fisher Assay ID=AICSXOJ.

[4] = tested on: HSV-1, strain F in Vero cells; assay: HSV CPE assay, HSV-1; format: cell-based
Experimental: (§3) Vero cells were maintained at 37° C./5% CO2/90% relative humidity in Dulbecco's Modified Eagle's Medium with 10% fetal bovine serum, […], 100 units/mL penicillin and 100 ug/mL streptomycin. For this assay, Vero cells (maintained at 37° C./5% CO2/90% relative humidity in Dulbecco's Modified Eagle's Medium with 10% fetal bovine serum, […], 100 units/mL penicillin and 100 μg/mL streptomycin) were seeded in 96-well microtiter plates and incubated for about 15 hours. They were then infected with HSV-1, strain F, or with HSV-2, strain G, at a multiplicity of infection known to result in 85-95% loss of cell viability during the assays, in the same media with 2% fetal bovine serum. Test compounds were dissolved in DMSO, and 6 point serial 10-fold dilutions in DMSO were prepared. Test compounds were added to infected cells, and the plates were incubated at 37° C./5% CO2/90% relative humidity for 5 days. Each plate contains cell control wells (cells only), virus control wells (cells plus virus), drug colorimetric control wells (drug only), background control wells (media only) and experimental wells (drug plus cells plus virus). Cytoprotection was assessed by the addition of Celltiter®96 Reagent (Promega, Madison, Wis.), according to manufacturer's recommendations. % cytopathic effect (CPE) reduction was calculated and IC50 (concentration inhibition virus replication by 50%) was reported.

[5] = tested on: HSV-2, strain G in Vero cells; assay: HSV CPE assay, HSV-2; format: cell-based
Experimental: as §3

[6] = Human betaherpesvirus 5, AD169, MRC5, footnote b: assay described in Example 25, read-out: CMV Cell^b (EC50)
[7] = Human alphaherpesvirus 1, 120 h, unstarred values: CPE assay of Example 25, Vero cells, 5 days, read-out: HSV1 Cell^b (EC50)
[8] = Human alphaherpesvirus 2, 120 h, unstarred values: CPE assay of Example 25, Vero cells, 5 days, read-out: HSV2 Cell^b CPE(EC50)
[9] = Human betaherpesvirus 5, AD169, MRC5, read-out: CMV Cell^b (EC50), footnote b: assay described in Example 25
[10] = Human alphaherpesvirus 1, Vero, 120 h, read-out: HSV1 Cell^b (EC50), unstarred values: CPE assay of Example 25, Vero cells, 5 days
[11] = Human alphaherpesvirus 2, Vero, 120 h, read-out: HSV2 Cell^b CPE(EC50), unstarred values: CPE assay of Example 25, Vero cells, 5 days
[12] = read-out: HSV1 Cell^b (EC50), unstarred values: CPE assay of Example 25, Vero cells, 5 days

T2 sequence (P09252 whole entry): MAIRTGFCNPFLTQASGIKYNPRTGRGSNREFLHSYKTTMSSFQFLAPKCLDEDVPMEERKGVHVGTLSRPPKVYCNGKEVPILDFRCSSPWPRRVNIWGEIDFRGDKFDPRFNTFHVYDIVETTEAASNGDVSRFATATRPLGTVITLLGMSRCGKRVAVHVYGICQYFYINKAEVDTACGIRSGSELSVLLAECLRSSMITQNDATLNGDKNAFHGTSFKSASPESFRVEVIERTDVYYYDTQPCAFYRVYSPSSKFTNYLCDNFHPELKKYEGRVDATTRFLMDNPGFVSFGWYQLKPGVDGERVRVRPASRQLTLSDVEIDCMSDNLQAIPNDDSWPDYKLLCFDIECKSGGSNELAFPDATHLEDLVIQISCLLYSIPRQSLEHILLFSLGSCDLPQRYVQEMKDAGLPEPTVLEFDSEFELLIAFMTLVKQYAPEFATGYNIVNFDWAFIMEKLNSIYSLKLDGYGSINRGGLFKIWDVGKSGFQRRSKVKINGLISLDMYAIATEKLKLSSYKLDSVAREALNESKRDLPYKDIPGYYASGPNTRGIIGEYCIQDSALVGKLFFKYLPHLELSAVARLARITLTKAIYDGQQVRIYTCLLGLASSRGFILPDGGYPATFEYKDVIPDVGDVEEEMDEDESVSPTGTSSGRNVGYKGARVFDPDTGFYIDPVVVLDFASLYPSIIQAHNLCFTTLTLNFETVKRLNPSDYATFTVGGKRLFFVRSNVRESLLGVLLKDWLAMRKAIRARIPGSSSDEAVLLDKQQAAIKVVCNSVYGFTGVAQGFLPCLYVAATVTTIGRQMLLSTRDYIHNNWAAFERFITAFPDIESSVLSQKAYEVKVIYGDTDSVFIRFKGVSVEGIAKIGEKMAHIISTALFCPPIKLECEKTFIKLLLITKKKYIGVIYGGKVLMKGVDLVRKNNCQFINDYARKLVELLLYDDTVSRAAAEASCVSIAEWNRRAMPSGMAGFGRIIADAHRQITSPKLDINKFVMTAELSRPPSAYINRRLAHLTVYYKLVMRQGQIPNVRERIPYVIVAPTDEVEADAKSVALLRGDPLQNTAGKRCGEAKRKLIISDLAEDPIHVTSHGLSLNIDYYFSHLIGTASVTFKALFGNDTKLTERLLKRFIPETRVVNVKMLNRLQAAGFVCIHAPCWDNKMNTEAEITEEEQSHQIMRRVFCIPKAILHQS
T1 sequence (P08546 whole entry): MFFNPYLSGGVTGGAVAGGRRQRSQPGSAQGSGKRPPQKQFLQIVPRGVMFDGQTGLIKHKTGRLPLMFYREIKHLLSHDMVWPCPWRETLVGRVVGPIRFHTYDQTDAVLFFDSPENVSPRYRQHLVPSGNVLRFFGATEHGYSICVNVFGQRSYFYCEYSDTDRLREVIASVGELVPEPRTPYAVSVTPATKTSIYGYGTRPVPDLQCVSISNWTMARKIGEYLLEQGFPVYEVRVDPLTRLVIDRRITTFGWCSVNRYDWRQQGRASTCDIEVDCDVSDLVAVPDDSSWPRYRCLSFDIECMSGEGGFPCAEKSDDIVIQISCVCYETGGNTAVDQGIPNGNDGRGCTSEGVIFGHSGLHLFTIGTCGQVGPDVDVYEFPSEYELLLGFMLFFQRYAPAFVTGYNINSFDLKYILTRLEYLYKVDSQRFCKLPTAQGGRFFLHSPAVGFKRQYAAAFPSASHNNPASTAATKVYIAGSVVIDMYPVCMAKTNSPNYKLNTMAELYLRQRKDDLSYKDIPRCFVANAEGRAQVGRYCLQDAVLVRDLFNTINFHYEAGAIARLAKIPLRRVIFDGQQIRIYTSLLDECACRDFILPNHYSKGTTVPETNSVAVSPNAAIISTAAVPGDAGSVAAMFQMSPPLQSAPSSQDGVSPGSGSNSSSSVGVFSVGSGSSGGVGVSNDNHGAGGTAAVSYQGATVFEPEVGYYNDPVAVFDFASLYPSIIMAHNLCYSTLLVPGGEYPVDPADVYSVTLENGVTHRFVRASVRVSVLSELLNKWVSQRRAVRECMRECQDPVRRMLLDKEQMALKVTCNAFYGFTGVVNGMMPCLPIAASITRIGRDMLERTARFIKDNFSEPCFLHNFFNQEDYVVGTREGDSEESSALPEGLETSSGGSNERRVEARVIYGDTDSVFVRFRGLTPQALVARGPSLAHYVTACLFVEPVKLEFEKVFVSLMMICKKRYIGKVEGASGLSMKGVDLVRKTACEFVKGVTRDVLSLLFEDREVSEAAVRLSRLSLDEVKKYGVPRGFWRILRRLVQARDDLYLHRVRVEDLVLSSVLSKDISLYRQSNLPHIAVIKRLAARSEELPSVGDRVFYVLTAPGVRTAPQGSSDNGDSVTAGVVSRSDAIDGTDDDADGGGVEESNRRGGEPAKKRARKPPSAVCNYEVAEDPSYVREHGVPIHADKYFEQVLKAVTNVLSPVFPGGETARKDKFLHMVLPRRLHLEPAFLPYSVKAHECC

SMILES	IC50 ([1]; read-out: CMV^a (IC50)) [nM]	IC50 ([2]; read-out: VZV^a (IC50)) [nM]	EC50 [3, 6] [nM]	EC50 [4, 7] [nM]	EC50 [5, 8] [nM]	also measured
Cn1nc(C(=O)NCc2ccc(Cl)cc2)c2c3c(ccc21)C(N1CCOCC1)CC3 (single isomer, unassigned) [Compound 16]	260	38	970	1500	1600	
Cc1c(N2CCn3nncc3C2)ccc2c(C(=O)NCc3ccc(C#N)cc3)nn(CCC#N)c12 [Compound 1]						IC50 ([1]; CMV^a (IC50)): 53 nM; IC50 ([2]; VZV^a (IC50)): 13 nM; EC50 [3, 9]: 120 nM; EC50 [4, 10]: 1600 nM; EC50 [5, 11]: 2500 nM
Cc1c(N2CCn3nncc3C2)ccc2c(C(=O)NCc3ccc(Cl)cc3)nn(C3CCNC3)c12 (stereo not shown) [Compound 4]						IC50 ([1]; CMV^a (IC50)): 37 nM; IC50 ([2]; VZV^a (IC50)): 16 nM; EC50 [3, 9]: 85 nM; EC50 [4, 12]: 3100 nM; EC50 [5, 11]: 2100 nM
Cc1c(N2CCn3nncc3C2)ccc2c(C(=O)NCc3ccc(Cl)cc3)nn(CCOCCO)c12 [Compound 5]						IC50 ([1]; CMV^a (IC50)): 33 nM; IC50 ([2]; VZV^a (IC50)): 12 nM; EC50 [3, 9]: 97 nM; EC50 [4, 10]: > 40000 nM; EC50 [5, 11]: 610 nM
Cc1c(N2CCn3nncc3C2)ccc2c(C(=O)NCc3ccc(Cl)cc3)nn(C3CCNC3)c12 (stereo not shown) [Compound 6]						IC50 ([1]; CMV^a (IC50)): 45 nM; IC50 ([2]; VZV^a (IC50)): 19 nM; EC50 ([3]; read-out: CMV Cell^b (EC50), footnote b: assay described in Example 25): 110 nM; EC50 [4, 12]: > 40000 nM; EC50 ([5]; read-out: HSV2 Cell^b CPE(EC50), unstarred values: CPE assay of Example 25, Vero cells, 5 days): 3700 nM
O=C(NCc1ccc(Cl)cc1)c1n[nH]c2c(Cl)c(N3CCn4nncc4C3)ccc12 [Compound 7]	22	5.1	120	120	200	
Cc1cc(CN2CCCS(=O)(=O)CC2)cc2c(C(=O)NCc3ccc(C#N)cc3)nn(CCC#N)c12 [Compound 8]						IC50 ([1]; CMV^a (IC50)): 103 nM; IC50 ([2]; VZV^a (IC50)): 62 nM; EC50 [3, 9]: 150 nM; EC50 [4, 10]: 6400 nM; EC50 [5, 11]: 22000 nM
Cn1nncc1COc1ccc2c(C(=O)NCc3ccc(Cl)cc3)nn(C)c2c1Cl [Compound 10]	41	12	460	250	590	
N#Cc1c(N2CCn3nncc3C2)ccc2c(C(=O)NCc3ccc(Cl)cc3)n[nH]c12 [Compound 11]	23	3.7	93	480	700	
Cc1nnn(C)c1COc1ccc2c(C(=O)NCc3ccc(Cl)cc3)nn(C[C@@H](C)O)c2c1F [Compound 12]						IC50 ([1]; CMV^a (IC50)): 7.1 nM; IC50 ([2]; VZV^a (IC50)): 1.6 nM; EC50 [3, 9]: 300 nM
Cc1c(NCc2cnnn2C)ccc2c(C(=O)NCc3ccc(Cl)cc3)n[nH]c12 [Compound 13]	17	5	320			
Cn1nc(C(=O)NCc2ccc(Cl)cc2)c2ccc(N3CCn4nncc4C3)c(Br)c21 [Compound 15]	25	14	930	850	930	
Cc1c(CN2CCCS(=O)(=O)CC2)ccc2c1c(C(=O)NCc1ccc(Cl)cc1)nn2C [Compound 18]	120	160	2900	6300	6100	
Cc1c(CN2CCOCC2)cc(C)c2c1c(C(=O)NCc1ccc(Cl)cc1)nn2C [Compound 19]	280	66	6100	1800	5300	
Cn1nc(C(=O)NCc2ccc(Cl)cc2)c2c(O)c(CN3CCOCC3)ccc21 [Compound 20]	390	66	> 9900	> 40000	> 40000	
Cn1nc(C(=O)NCc2ccc(Cl)cc2)c2c(F)c(CN3CCOCC3)ccc21 [Compound 21]	480	180	7200	2200	3600	
Cc1c(CN2CCOCC2)cc2c(C(=O)NCc3ccc(Cl)cc3)nn(C)c2c1C [Compound 22]	580		4300			
Cn1nc(C(=O)NCc2ccc([N+](=O)[O-])cc2)c2cc(CN3CCOCC3)ccc21 [Compound 23]	990	180	12000			
Cn1nc(C(=O)NCc2ccc(Br)cc2)c2cc(CN3CCOCC3)ccc21 [Compound 24]	920	220	> 9900			
Cn1nc(C(=O)NCc2ccc(F)cc2)c2cc(CN3CCOCC3)ccc21 [Compound 26]	3300	740				
Cn1nc(C(=O)NCc2ccc(Cl)cc2)c2cnc(N3CCn4nncc4C3)cc21 [Compound 28]	810	250	7500			
Cn1nc(C(=O)NCc2ccc(Cl)cc2)c2cc(CN3CCOCC3)ncc21 [Compound 29]	2400	1600				
Cn1nc(C(=O)NCc2ccc(Cl)cc2)c2ccc(N3CCn4nncc4C3)nc21 [Compound 30]	1600	3000				
Cn1cc(C(=O)NCc2ccc(Cl)cc2)c2ccc(N3CCn4nncc4C3)cc21 [Compound 31]	190	120				
Cc1c(N2CCn3nncc3C2)ccc2c(C(=O)NCc3ccc(C#N)cc3)nn(C[C@H](C)NC(=O)C(C)C)c12 [Compound 32]						IC50 ([1]; CMV^a (IC50)): 4.2 nM; IC50 ([2]; VZV^a (IC50)): 1.8 nM; EC50 [3, 9]: 60 nM; EC50 [4, 10]: 14000 nM; EC50 [5, 11]: 13000 nM
